Measured values published in ChEMBL document CHEMBL5465560, “Selectivity Literature for EUbOPEN Chemogenomic Library” (2024).

What was measured:
[1] = target: T1, TGF-beta receptor type-1 (Homo sapiens) (UniProt P36897); assay: Selectivity interaction (KinomeScan (DiscoverX)) EUB0001079a TGFBR1; conditions: at 1 µM
T1 sequence (whole entry): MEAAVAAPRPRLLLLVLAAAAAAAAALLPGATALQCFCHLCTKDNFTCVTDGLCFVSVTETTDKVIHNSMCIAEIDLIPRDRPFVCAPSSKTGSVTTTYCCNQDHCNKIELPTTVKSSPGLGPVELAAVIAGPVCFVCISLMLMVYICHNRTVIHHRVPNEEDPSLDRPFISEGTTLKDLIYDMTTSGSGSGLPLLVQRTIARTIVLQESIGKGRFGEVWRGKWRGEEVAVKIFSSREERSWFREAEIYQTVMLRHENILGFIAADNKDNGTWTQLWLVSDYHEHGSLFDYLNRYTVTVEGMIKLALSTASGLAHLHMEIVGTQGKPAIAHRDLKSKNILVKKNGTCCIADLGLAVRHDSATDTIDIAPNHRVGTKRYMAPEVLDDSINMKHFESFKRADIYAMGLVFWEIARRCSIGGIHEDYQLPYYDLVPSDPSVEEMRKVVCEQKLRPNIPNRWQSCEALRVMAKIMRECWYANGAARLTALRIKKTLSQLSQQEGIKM

[2] = target: Tyrosine-protein kinase Srms (Homo sapiens) (UniProt Q9H3Y6); assay: Selectivity interaction (KinomeScan (DiscoverX)) EUB0000666a SRMS; conditions: at 10 µM
[3] = target: Tyrosine-protein kinase ABL1 (Homo sapiens, UniProt P00519); conditions: at 10 µM
[4] = target: AP2-associated protein kinase 1 (Homo sapiens, UniProt Q2M2I8); assay: Selectivity interaction (KinomeScan (DiscoverX)) EUB0001049a AAK1; conditions: at 1 µM
[5] = target: Tyrosine-protein kinase Yes (Homo sapiens) (UniProt P07947); assay: Selectivity interaction (ActivX KiNativ screen (ex vivo kinase selectivity in human PBMCs)) EUB0001619a YES1; type: cell-based; conditions: PBMC, at 1 µM
Misshapen-like kinase 1 = Misshapen-like kinase 1 (Homo sapiens, UniProt Q8N4C8); assay: Selectivity interaction (KinomeScan (DiscoverX)) EUB0000618a MINK1; conditions: at 10 µM
[6] = target: Proto-oncogene tyrosine-protein kinase Src (Homo sapiens, UniProt P12931); assay: Selectivity interaction (Kinase panel (Invitrogen)) EUB0000639a SRC; conditions: at 200 nM
[7] = target: Calcium/calmodulin-dependent protein kinase type 1 (Homo sapiens) (UniProt Q14012); assay: Selectivity interaction (KinomeScan (DiscoverX)) EUB0000092b CAMK1; conditions: at 10 µM
[8] = target: T2, SNF-related serine/threonine-protein kinase (Homo sapiens) (UniProt Q9NRH2); assay: Selectivity interaction (Ambit KINOMEscan and KiNATiv profiling in Jurkat cells) EUB0000090b SNRK; type: cell-based; conditions: at 1 µM
T2 sequence (whole entry): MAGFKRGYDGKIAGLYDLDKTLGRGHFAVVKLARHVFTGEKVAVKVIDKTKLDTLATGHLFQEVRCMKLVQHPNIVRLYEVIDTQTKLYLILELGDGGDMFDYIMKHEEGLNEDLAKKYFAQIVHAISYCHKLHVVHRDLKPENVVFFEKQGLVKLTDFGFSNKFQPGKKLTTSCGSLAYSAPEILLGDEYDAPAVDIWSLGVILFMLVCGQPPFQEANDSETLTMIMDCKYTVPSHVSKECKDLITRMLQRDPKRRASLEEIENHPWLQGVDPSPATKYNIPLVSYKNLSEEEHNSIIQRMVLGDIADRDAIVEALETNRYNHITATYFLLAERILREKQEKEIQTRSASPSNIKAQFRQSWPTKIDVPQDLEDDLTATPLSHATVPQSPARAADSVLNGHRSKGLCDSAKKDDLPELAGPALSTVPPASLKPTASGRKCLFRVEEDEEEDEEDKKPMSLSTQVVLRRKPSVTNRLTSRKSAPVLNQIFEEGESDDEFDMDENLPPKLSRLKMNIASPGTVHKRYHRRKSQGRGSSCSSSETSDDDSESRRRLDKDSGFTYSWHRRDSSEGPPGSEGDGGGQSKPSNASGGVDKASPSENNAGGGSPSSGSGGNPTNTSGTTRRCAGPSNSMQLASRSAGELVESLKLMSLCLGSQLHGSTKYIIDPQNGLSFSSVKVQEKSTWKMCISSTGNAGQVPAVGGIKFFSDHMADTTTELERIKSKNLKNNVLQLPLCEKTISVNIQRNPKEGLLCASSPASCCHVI

Sequence of Tyrosine-protein kinase ABL1 (P00519 whole entry): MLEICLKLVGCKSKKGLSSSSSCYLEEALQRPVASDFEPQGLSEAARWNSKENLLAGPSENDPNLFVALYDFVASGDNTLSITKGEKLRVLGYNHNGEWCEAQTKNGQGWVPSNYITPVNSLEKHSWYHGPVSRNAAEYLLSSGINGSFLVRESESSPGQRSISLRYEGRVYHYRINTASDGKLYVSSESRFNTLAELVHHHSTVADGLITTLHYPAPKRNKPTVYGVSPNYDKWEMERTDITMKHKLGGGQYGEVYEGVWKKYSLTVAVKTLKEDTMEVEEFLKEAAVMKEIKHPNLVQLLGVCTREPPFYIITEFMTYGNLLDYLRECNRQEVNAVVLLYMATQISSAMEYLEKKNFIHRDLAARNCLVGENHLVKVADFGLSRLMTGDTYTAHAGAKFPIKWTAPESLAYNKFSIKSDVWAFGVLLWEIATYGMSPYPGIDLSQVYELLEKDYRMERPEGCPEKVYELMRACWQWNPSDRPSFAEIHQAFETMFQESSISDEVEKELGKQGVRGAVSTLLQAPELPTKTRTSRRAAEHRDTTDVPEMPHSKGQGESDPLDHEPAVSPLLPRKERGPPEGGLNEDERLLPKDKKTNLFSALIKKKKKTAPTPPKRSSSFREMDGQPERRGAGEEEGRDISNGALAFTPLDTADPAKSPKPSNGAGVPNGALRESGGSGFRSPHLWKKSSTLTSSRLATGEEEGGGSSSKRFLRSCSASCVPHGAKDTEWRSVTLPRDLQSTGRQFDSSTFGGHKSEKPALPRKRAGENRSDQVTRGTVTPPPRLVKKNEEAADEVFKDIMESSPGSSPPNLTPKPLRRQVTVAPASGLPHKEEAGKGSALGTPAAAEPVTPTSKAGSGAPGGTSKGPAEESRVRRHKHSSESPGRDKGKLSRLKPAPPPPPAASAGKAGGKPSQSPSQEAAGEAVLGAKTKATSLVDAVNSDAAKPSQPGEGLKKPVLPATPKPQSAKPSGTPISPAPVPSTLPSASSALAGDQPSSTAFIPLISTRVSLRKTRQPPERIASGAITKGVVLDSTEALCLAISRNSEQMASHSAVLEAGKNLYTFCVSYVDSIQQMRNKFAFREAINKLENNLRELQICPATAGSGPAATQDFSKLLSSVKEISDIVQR
Sequence of AP2-associated protein kinase 1 (Q2M2I8 whole entry, looked up): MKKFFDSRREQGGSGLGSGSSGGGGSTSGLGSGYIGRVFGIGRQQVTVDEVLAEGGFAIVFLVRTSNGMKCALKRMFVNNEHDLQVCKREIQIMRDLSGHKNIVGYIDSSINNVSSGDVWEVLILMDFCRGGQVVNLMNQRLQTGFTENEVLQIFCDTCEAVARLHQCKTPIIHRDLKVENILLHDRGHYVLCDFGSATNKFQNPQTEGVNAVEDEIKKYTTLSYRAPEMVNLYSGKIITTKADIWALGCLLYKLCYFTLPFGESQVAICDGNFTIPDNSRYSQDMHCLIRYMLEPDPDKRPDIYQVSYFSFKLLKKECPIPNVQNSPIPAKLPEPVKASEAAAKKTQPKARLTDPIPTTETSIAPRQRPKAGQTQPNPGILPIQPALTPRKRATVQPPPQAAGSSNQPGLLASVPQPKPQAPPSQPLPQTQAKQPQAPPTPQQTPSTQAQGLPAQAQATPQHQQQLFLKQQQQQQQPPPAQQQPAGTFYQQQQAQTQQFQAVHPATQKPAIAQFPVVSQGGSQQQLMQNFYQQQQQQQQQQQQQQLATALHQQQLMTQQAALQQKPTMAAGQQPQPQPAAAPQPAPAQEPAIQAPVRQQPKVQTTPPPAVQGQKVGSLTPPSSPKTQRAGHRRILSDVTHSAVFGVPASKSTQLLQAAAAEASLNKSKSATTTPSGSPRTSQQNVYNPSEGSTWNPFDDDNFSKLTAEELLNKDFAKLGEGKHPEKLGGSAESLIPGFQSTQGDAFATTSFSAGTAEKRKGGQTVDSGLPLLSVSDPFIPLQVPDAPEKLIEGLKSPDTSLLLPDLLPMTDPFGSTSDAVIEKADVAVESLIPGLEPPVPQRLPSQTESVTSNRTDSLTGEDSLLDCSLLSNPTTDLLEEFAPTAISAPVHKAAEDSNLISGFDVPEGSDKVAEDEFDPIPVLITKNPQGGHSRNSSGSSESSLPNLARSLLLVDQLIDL
Sequence of Proto-oncogene tyrosine-protein kinase Src (P12931 2-536 limits assumed): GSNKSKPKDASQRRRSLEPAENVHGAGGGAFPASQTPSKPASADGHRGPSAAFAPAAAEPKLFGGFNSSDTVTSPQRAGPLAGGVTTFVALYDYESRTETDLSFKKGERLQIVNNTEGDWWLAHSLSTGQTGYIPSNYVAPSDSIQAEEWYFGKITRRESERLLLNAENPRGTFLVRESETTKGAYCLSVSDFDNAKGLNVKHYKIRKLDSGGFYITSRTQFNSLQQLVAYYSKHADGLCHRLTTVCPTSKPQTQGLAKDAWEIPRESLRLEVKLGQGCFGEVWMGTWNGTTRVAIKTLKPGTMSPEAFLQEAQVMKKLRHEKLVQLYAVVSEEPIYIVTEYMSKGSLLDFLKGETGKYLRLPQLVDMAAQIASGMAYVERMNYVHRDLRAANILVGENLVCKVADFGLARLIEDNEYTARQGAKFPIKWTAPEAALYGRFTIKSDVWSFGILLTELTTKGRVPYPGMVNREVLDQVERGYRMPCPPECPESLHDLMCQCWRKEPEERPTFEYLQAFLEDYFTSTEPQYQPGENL
Sequence of Tyrosine-protein kinase Yes (Homo sapiens) (P07947 2-543 limits assumed): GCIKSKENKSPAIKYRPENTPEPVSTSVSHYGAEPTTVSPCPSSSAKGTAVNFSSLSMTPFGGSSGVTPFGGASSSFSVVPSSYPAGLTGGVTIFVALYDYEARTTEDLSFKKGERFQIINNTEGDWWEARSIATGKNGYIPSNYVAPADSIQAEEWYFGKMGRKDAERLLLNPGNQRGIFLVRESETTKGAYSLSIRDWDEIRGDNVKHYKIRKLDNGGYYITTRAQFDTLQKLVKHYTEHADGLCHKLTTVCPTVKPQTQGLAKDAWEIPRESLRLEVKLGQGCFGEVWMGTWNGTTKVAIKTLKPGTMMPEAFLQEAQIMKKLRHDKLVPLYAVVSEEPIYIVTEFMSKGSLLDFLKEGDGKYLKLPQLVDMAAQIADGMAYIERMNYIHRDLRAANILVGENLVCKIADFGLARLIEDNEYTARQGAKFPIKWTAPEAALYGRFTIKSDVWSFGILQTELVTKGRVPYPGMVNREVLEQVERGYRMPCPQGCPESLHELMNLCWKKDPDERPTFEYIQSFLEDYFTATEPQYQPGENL
Sequence of Tyrosine-protein kinase Srms (Homo sapiens) (Q9H3Y6 whole entry): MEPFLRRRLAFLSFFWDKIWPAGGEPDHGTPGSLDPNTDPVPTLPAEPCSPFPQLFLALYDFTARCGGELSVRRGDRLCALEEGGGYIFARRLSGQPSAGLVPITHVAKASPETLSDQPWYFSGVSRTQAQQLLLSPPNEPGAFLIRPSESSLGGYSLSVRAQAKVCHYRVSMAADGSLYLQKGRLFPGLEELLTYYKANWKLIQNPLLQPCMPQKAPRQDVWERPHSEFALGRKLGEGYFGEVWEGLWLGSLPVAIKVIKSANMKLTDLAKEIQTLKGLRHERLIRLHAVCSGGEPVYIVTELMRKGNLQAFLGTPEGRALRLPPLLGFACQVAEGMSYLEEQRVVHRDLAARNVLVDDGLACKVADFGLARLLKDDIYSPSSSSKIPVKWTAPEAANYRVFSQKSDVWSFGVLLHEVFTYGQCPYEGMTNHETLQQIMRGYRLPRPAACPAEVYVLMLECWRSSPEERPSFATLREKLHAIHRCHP
Sequence of Misshapen-like kinase 1 (Q8N4C8 whole entry, looked up): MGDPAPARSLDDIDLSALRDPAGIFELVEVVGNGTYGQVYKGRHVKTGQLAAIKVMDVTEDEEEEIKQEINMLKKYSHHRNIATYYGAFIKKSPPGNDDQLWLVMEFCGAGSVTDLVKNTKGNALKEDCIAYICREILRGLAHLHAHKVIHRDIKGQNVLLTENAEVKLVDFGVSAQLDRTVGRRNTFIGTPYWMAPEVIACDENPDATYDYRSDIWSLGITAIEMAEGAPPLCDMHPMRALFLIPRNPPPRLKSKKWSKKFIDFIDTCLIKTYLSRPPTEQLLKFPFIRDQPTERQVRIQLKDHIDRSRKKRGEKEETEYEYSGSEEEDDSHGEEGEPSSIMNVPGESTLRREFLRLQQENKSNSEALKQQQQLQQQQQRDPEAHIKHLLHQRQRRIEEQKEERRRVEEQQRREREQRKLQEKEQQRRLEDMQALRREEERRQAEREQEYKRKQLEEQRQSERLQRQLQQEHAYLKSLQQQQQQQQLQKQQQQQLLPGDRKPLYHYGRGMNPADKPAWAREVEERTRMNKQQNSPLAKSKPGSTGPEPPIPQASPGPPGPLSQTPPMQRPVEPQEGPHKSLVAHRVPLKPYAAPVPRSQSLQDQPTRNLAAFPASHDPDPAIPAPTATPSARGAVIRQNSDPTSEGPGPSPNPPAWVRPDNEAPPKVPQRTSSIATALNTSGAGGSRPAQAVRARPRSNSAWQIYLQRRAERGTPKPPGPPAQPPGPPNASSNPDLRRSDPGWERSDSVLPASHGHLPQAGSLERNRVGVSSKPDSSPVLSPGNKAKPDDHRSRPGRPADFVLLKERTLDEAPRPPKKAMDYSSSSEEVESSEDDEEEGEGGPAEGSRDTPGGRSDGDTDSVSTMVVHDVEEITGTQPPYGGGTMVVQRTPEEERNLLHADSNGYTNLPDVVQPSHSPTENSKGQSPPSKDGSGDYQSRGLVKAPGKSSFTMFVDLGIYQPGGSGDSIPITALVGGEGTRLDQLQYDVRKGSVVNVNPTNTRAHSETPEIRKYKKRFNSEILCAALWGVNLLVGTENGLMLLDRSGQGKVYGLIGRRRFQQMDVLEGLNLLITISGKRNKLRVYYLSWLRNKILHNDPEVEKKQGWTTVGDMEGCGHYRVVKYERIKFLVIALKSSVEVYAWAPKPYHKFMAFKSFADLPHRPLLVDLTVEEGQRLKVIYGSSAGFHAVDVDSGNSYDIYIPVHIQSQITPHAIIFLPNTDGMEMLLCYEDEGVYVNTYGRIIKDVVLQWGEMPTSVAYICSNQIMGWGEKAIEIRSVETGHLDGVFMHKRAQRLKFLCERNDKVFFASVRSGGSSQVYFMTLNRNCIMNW

Nc1cnc(N2CCc3cc(S(=O)(=O)Nc4c(F)cc(Cl)cc4F)cc(N4CCCC4=O)c32)nc1 [TP-020n]
% of control [1]: 100%

O=C(NOC[C@H](O)CO)c1ccc(F)c(F)c1Nc1ccc(I)cc1F
% of control [2]: 95%

Cc1cc([C@@H](C)Nc2ccccc2C(=O)O)c2nc(N3CCOCC3)cc(=O)n2c1 [AZD-6482]
% of control [3]: 88%

COc1cc(Nc2nc(C)cc(-c3cnn4nc(OC)ccc34)n2)cc(C(F)(F)F)c1
% of control [4]: 96%

N#Cc1cccc(-c2c[nH]c3ncnc(N4CCOCC4)c23)c1
% of inhibition [5]: -9%

O[C@H]1CC[C@H](Nc2ncc3nc(Nc4c(F)cc(F)cc4F)n([C@H]4CCOC4)c3n2)CC1
% of control (Misshapen-like kinase 1): 71%

CC[C@@H]1[C@H](F)C(=O)N[C@@H]1COc1nccc2cc(C(N)=O)c(OC)cc12 [ZIMLOVISERTIB]
% of inhibition [6]: 14.4%

CCC(=O)N1CCN(c2ccc(-n3c(=O)ccc4cnc5ccc(-c6cnc7ccccc7c6)cc5c43)cc2C(F)(F)F)CC1
% of control [7]: 50%

CN(C)C/C=C/C(=O)Nc1ccc(C(=O)N2CCCC(Nc3ncc(Cl)c(-c4c[nH]c5ccccc45)n3)C2)cc1 (centres undefined)
% of control [8]: 93%
